Experiment: siRNA stability in 50% FBS (gel electrophoresis)
Assay type: in vitro ADME, bovine
Experimental: siRNA-loading capacity of MSN^a was evaluated by the agarose gel retardation assay. siRNA-loaded MSNs (MSN^a/siRNA) complexes were prepared varying the MSN^a/siRNA weight ratio from 1/1 to 50/1. The complexes were loaded in 2% agarose gel and run in 0.5×TAE buffer at 80 V for 40 min. The gel was stained with ethidium bromide, and siRNA bands were detected at 302 nm using Azure C300 (Dublin, CA, USA). For stability testing, siRNA or NPs were challenged with 166 U/mL RNase for 15 min±8 mg/mL SDS for additional 2.5 h or 50% FBS for 1 h, both at 37° C., and analyzed by agarose gel electrophoresis. To quantify siRNA loaded in Nanosac (O/siRNA/pD), the NPs were dispersed in dilute HCl solution (pH 3) and incubated for 72 h. The samples were centrifuged at 16,000 rcf for 10 min, and the supernatant and pellet were separately analyzed by agarose gel electrophoresis.

In the case of “siPD-L1: PD-L1 siRNA, sense 5′-CCCACAUAAAAAACAGUUGTT-3′ (SEQ ID NO: 1), antisense SEQ ID NO: 2 (antisense CAACUGUUUUUUAUGUGGGTT; chemistry not given here)”, the “stability of siRNA in 50% FBS” value is reported as “completely degraded”.
